# In patent publication US20230046617A1, “METHOD FOR PROMOTING EXPANSION OF HEMATOPOIETIC STEM CELLS AND AGENT FOR USE IN THE METHOD” (FARON PHARMACEUTICALS OY, priority 2020, published 2023):
# Tests used:
# [1] = tested on: human umbilical CB-derived HSCs (CD34+CD38-); assay: Liquid culture expansion of umbilical cord blood derived HSCs; assay type: cell-based
# Experimental: For human umbilical CB cells, an antibody-based EasySep kit was used to enrich CD34^+CB cells, which were subsequently stained with anti-CD38 and anti-CD34 antibodies. CD38^−CD34^+ cells were sorted using a FACSAria Ilu instrument (BD Biosciences) and then cultured in StemSpan SFEM medium II (STEMCELL Technologies) containing human stem cell factor (100 ng/ml), FMS-like tyrosine kinase 3 ligand (100 ng/ml), and thrombopoietin (50 ng/ml) (all from Peprotech). Cells were seeded at a density of 1×10^3 per ml. LJP-1586 was added immediately after plating when indicated. Cultures were maintained for 21 days, and half the medium was replaced by that containing the same cytokines and LJP-1586 on days 5, 8, 12, 15, and 18. CD34^+ cells from human umbilical CB were isolated via a two-step procedure using Ficoll-Plaque gradient centrifugation (Amersham Pharmacia Biotech, Uppsala, Sweden) and an EasySep Human Cord Blood CD34 Positive Selection Kit II (STEMCELL Technologies). For batch and single cell sorting of VAP-1^+ and VAP-1^− cells from CB we used a Sony SH800 cell sorter with class A2 Level II biosafety cabinet using 130 μm microfluidic sorting chips. This sorter applies low shear stress on cells allowing better survival during cell culture. CD34^+ cells were also sorted into VAP-1^+ and VAP-1^−HSCs (Lineage-CD34+CD38). From these, 100 VAP-1+ and VAP-1−HSCs were then cultured in StemSpan SFEM medium II (STEMCELL Technologies) containing human stem cell factor (100 ng/ml), FMS-like tyrosine kinase 3 ligand (100 ng/ml), and thrombopoietin (50 ng/ml) (all from Peprotech). LJP-1586 was added immediately after plating at a concentration of 1 μM. Cultures were maintained for 20 days. Fresh medium containing the same cytokines and LJP-1586 was added on days 5, 8, 10, 12, 15 and 18. The cells were analysed on days 10 and 15 for CD38−CD34+CD45RA−CD90+ expression using LSR Fortessa instrument (BD Biosciences). Alternatively, a VAP-1 inhibitor szTU73 was used in CB cultures at concentrations 1, 5 and 10 micromolar.
# CB-derived HSCs = assay: CFU assay of CB-derived cells expanded in liquid culture; assay type: cell-based, human; conditions: after 15 days liquid culture with LJP-1586 (0.5 μM), then CFU assay with LJP-1586
# Experimental: (§1) The progeny of 900 CD38^−CD34^+ cells collected from 15-day-old in vitro cultures, obtained as described above, were grown in methylcellulose-based medium (H4436, STEMCELL Technologies) containing or lacking LJP-1586. After 14 days, single, multilineage, and mixed colonies were visually scored by microscopy. Cryopreserved human CD34^+ cells from AllCells were thawed, resuspended, and counted according to the manufacturer's protocol. Five hundred thawed human BM CD34^+ cells were cultured in complete methylcellulose-based medium (H4436, STEMCELL Technologies) containning or lacking LJP-1586. The total number of colonies was counted at 14 days after plating. Replating was performed twice by harvesting and dissociating cells under sterile conditions.
# [2] = tested on: human BM-derived CD34+ cells; assay: CFU assay of human BM-derived CD34+ cells with replating; assay type: cell-based; conditions: LJP-1586 0.5 μM
# Experimental: as §1
# [3] = tested on: ROS in human CD34+ BM cells (CD38-CD34+ gated); assay: ROS production (oxidative burst) by DHR-123 and flow cytometry; assay type: cell-based; conditions: 9-day liquid cultures, PMA activation, bone marrow derived HSCs
# Experimental: Human CD34^+BM cells were liquid cultured for nine days in StemSpan SFEM medium II (STEMCELL Technologies) containing human stem cell factor (100 ng/ml), FMS-like tyrosine kinase 3 ligand (100 ng/ml), and thrombopoietin (50 ng/ml) (all from Peprotech) with or without LJP-1586. After nine days, the cells were stained with anti-CD38 and anti-CD34 antibodies, washed using DMEM, centrifuged and resuspended in 100 μl DMEM. Then, ROS were detected by DHR-123 reagent (Molecular Probes). For this, DHR-123 was diluted in DMSO and kept as a 5 mM stock solution at −20° C. for single use. […] The cells were then incubated for 10 min at 37° C. and followed by activation with Phorbol 12-myristate 13-acetate (PMA) (Sigma-Aldrich. The stock solution of PMA was frozen at 1 mg/ml in DMSO, freshly thawed and diluted 500 times in order to add 12.5 μl to a final concentration of 200 ng/ml. After 20 min at 37° C., the cells were washed with PBS, resuspended and analyzed by flow cytometry. The red DHR123 turns to green after oxidation. CD38^− and CD34^+ positive cells were gated and fluorescence intensity of oxidized DHR-123 was measured from the filter channel 530 nm/30 nm using LSR Fortessa instrument (BD Biosciences) and analyzed by FlowJo software (Tree Star).
# [4] = tested on: human CD45+ cells engraftment in the BM of NBSGW mice; assay: In vivo engraftment of sorted human BM cells in non-irradiated NBSGW mice; conditions: VAP-1+ cells in the transfer pool; inhibitor 10 mg/kg i.p. three times a week for six weeks; cut-off 0.1% human CD45+
# Source text: Human fresh frozen BM CD34+ cells (LONZA) were thawed and stained with APC conjugated mouse anti-Lineage cocktail, PE-Cy7-conjugated anti-CD34 and FITC-conjugated monoclonal antibodies 1B2, TK8-14, and JG-2 against different epitopes of human VAP-1. For batch cell sorting of VAP-1^+/lo and VAP-1^− cells we used a Sony SH800 cell sorter with class A2 Level II biosafety cabinet using 130 μm microfluidic sorting chips. The NBSGW (immune-deficient, c-Kit-deficient) mice not needing irradiation to accept human cells were used as […]. In the VAP-1^− group 19000 cells and in the VAP-1−+VAP-1^+/lo group 16250 VAP-1^− cells and 2750 VAP-1^+/lo cells were intravenously injected per animal. […] Samples were run on LSR fortessa and the data was analyzed with FlowJo. Percentage of chimerism [% chimerism=(% test donor-derived cells)×100/((% test donor-derived cells+(% competitor-derived cells))] was calculated as described (Ema et al., “Adult mouse hematopoietic stem cells: purification and single-cell assays”, Nat Protoc 2006 1(6), 2979-2987).
compound,measurement,setting,value
"COc1ccc(C/C(=C/F)CN)cc1.Cl [LJP-1586, Z-3-fluoro-2-(4-methoxybenzyl)allylamine hydrochloride]",number of primitive HSCs (CD34+CD38-CD45RA-CD90+CD49f+) compared to non-treated cultures,"[1]; 1 μM, 15 days, average of three donors",11 times
same,HSC expansion compared to control cells,"[1]; 1 μM, grown for 18 days",more than 31 times
same,share of HSCs in gate P-3 that were primitive HSCs,[1]; CD34+CD38-CD45RA-CD90+CD49f+,More than 12%
same,expansion of VAP-1+ HSCs in long term liquid cultures,"[1]; day 20, 1 μM",boosted their expansion
same,expansion of HSCs at other concentrations,[1]; higher or lower concentrations than 1 μM,less efficient
same,number of CFUs compared to control cultures,CB-derived HSCs,7.9 times
same,number of CFUs higher than control cultures after re-plating,[2]; after dissociating and re-plating twice,92%
same,number of CFUs higher than control cultures,"[2]; first plating, 500 BM CD34+ cells",33%
same,ROS reduction (MFI) compared to control cells,[3],62%
same,mice that accepted the human BM engraftment,[4],3/3
